Test results reported in patent US7399775B2, “β-amyloid protein production/secretion inhibitor” (Daiichi Pharmaceutical Co., Ltd., priority 2001, dated 2008).

Tests used:
[1] = tested on: β-amyloid protein (Aβ) production/secretion in E35 cells (H4 cells transfected with APP751); experiment: Cell-based assay for inhibition of production or secretion of β-amyloid protein (sandwich ELISA of Aβ in culture medium); design: species or system human; details: Homo sapiens, 24 h, 24 h with compound, Aβ in medium by sandwich ELISA, read-out: Activity (EC50 class, inhibition of Aβ secreted in culture medium)
Method: Cell-Based Assay for Screening of a Compound Which Inhibits Production or Secretion of β-Amyloid Protein
E35 cells which were established by transfecting APP751 gene which is a wild type human β-amyloid protein precursor into human glioma cells (H4 cells), were used to analyze inhibitory activity of a compound against β-amyloid production. The amount of β protein (Aβ) secreted in a culture medium was measured by the sandwich enzyme-linked imunosorbent assay.
E35 cells were seeded in Dulbecco's Modified Eagle's Medium containing 10% inactivated fetal bovine serum on 96-well plates and cultured in humidified air and 5% CO2 at 37° C. in a CO2 incubator. Twenty-four hours after seeding of the cells, a test compound dissolved in DMSO was added to the medium. The DMSO solution of the compound was prepared so as to give the final concentration of DMSO in the medium 0.05%. The cells were cultured for additional twenty-four hours, and then the cultured medium was collected. The medium collected was applied to a 96-well ELISA plate on which a monoclonal antibody 25-1, which recognized Aβ25-35, was immobilized, followed by the incubation at 4° C. for 16 to 20 hours. After washing with a phosphate buffer (pH 7.4), a biotinylated monoclonal antibody MA32-40, which recognizes Aβ1-8, was added to the plate, and the plate was incubated at 4° C. for 2 hours. Then alkaline phosphatase-conjugated streptavidin was added to the plate. Alkaline phosphatase activity was measured by a […] assay using BlouPhos (manufactured by KPL) as a substrate. An amount of Aβ in the medium was calculated using a calibration curve separately created. EC50 of the test compound was presented as the concentration that gives 50% inhibitory activity compared to the control cells which were not treated with the compound.

SMILES | melting point [°C] | EC50 [1] [nM]
O=S(=O)(c1ccc(Cl)cc1)C(c1cc(F)ccc1F)C1CCCCC1 (stereo not shown) [Example 36, 2-[[(4-Chlorophenyl)sulfonyl](cylcohexyl)methyl]-1,4-difluorobenzene] | 107 to 109 | 50 to 500
O=S(=O)(c1ccc(Cl)cc1)C(c1cccnc1)c1cc(F)ccc1F (stereo not shown) [Example 141, 3-[[(4-Chlorophenyl)sulfonyl]-(2,5-difluorophenyl)methyl]pyridine] | 130 to 131 | 50 to 500
O=S(=O)(c1ccc(Cl)cc1)C(c1cc(F)ccc1F)c1cc(N2CCOCC2)ncc1Cl (stereo not shown) [Example 347, 4-[5-Chloro-4-[(4-chlorophenylsulfonyl)-(2,5-difluorophenyl)methyl]pyridin-2-yl]morpholine] | 180 to 181 | ≤ 50
O=S(=O)(c1ccc(Cl)cc1)C(CCOCCO)c1cc(F)ccc1F (stereo not shown) [Example 35, 2-[3-[(4-Chlorophenyl)sulfonyl]-3-(2,5-difluorophenyl)propoxy]ethanol] | 41 to 46 | 500 to 5000
O=S(=O)(c1ccc(Cl)cc1)C(CCCCCO)c1cc(F)ccc1F (stereo not shown) [Example 32, 6-[(4-Chlorophenyl)sulfonyl]-6-(2,5-difluorophenyl)-1-hexanol] | 98 to 99 | 50 to 500
O=C(O)CCc1ccc(C(c2cc(F)ccc2F)S(=O)(=O)c2ccc(Cl)cc2)nc1 (stereo not shown) [Example 334, 3-[6-[(4-Chlorophenylsulfonyl)-(2,5-difluorophenyl)methyl]pyridin-3-yl]propionic Acid] | 158 to 160 | 50 to 500
O=S(=O)(c1ccc(Cl)cc1)C(c1ccc(CO)cn1)c1cc(F)ccc1F (stereo not shown) [Example 331, 2-[(4-chlorophenylsulfonyl)(2,5-difluorophenyl)methyl]-5-(hydroxymethyl)pyridine] | 151 to 152 | 50 to 500
CCC=CC(c1cc(F)ccc1F)S(=O)(=O)c1ccc(Cl)cc1 (stereo not shown) [Example 14, 2-[1-[(4-Chlorophenyl)sulfonyl]-2-penten-1-yl]-1,4-difluorobenzene] | 99 to 100 | 500 to 5000
O=S(=O)(c1ccc(Cl)cc1)C(c1cc(F)ccc1F)c1ccncc1Cl (stereo not shown) [Example 343, 3-Chloro-4-[(4-chlorophenylsulfonyl)-(2,5-difluorophenyl)methyl]pyridine] | 160 to 161 | ≤ 50
O=S(=O)(c1ccc(Cl)cc1)C(c1ccc(C2OCCO2)cn1)c1cc(F)ccc1F (stereo not shown) [Example 330, 2-[(4-Chlorophenylsulfonyl)-(2,5-difluorophenyl)methyl]-5-(1,3-dioxolan-2-yl)pyridine] | 167 to 168 | 50 to 500
CCCC=C(c1cc(F)ccc1F)S(=O)(=O)c1ccc(Cl)cc1 [Example 12, 2-[1-[(4-Chlorophenyl)sulfonyl]-1-penten-1-yl]-1,4-difluorobenzene] | 95.5 to 97 | 500 to 5000
